Source: patent US20220411362A1, “DITERPENOID COMPOUNDS THAT ACT ON PROTEIN KINASE C (PKC)” (K-Gen, Inc., priority 2019, published 2022)
Like-named read-outs stand apart in the source and are kept apart here.

How the values were obtained:
[1] = tested on: Mino (Lymphoma) cell line; assay: Proliferation of Mino; format: cell-based
Protocol: (§1) The diterpenoid compounds were tested in A549, a non-small cell lung cancer cell line harboring a K-Ras activating mutation. Briefly, A549 cells at a density of 1,000 cells/well were seeded in 96-well plates and incubated at 37° C. for 24 hours. A series of different concentrations of compound stocks (500×) were prepared by 3-fold serial dilution in DMSO. These compounds were further diluted in culture media and then added to cells so that the final DMSO concentration was not exceeding 0.25%. After 96 hours of incubation, 50 μL of CellTiter Glo reagent (Promega) was added to each well and luminescence was measured after 10 minutes using EnVision (PerkinElmer). Luminescence from cells treated with DMSO alone was set as Max and % of inhibition was calculated as follows: Inhibition %=(Max−Sample value)/Max×100. Data was analyzed using XL-fit software (ID Business Solutions Ltd.) and IC50, relative IC50, and % of top inhibition was calculated. Some of the compounds in this disclosure were very potent in blocking proliferation of A549 lung cancer cells at low nM range. In addition, potency of inhibiting A549 proliferation correlated well with its binding affinity to PKCs for this series of compounds. In other words, higher affinity binders had stronger inhibitory effects on A549 proliferation. This further support the notion that activation, rather than inhibition, of certain PKC isoforms is required to block proliferation of cancer cells, some of which may harbor K-Ras mutations. This is in sharp contrast to previous literature and common belief that inhibition of PKC is necessary to block cancer cell growth (Kang, 2014, New Journal of Science, 2014:1-36). Data presented here is in agreement with recent findings that many loss-of-function but not gain-of-function mutations of PKC isoforms have been identified in many human cancers (Antal et al., 2015, Cell, 160:489-502).
(§2) The compounds in this disclosure were tested for their potency in blocking proliferation of a few other cancer cells lines, including K-Ras mutant pancreatic cell lines Panc2.13 and KP-4, leukemia cell line HL-60, and lymphoma cell lines Namalwa and Mino. Similar procedures as in Example 67 were followed. Initial cell numbers seeded in 96-well plates were different for different cell lines: 3000 cells/well for Panc2.13; 800-1000 cells/well for KP-4; 5000 cells/well for HL-60; 5000-10000 cells/well for Namalwa and Mino. A ratio ratio of (IC50 of K01)/(IC50 of compound) (data in parenthesis in Table 5) was used to normalize the compound potency from different assay batches to a common comparator […].

[2] = tested on: Namalwa (Lymphoma) cell line; assay: Proliferation of Namalwa; format: cell-based; conditions: for IC50: read-out: IC50 in μM Namalwa (Lymphoma); for ratio of (IC50 of K01)/(IC50 of compound), Namalwa: value in parenthesis
Protocol: as §1, §2

[3] = tested on: A549 non-small cell lung cancer cell line; assay: Proliferation of A549 (CellTiter Glo); format: cell-based; conditions: Homo sapiens, read-out: IC50 μM (A549 Cell Line)
Procedure, shortened: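 Luminescent CellTiter Glo read-out after 96 h compound exposure of A549 cells plated at 1,000/well and rested 24 h at 37° C; DMSO kept ≤0.25%, dilutions 3-fold. Inhibition taken relative to DMSO-treated wells; IC50, relative IC50 and top inhibition derived by curve fitting.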

[4] = tested on: phosphorylation of CaMKii at T286 in Panc1 cells; assay: CaMKii phosphorylation in Panc1 cell line (Western blot); format: cell-based; conditions: 0.2 μM and 1 μM, 48 hours (FIG. 5)
Protocol: Panc1 (a pancreatic cancer cell line) cells (˜5-8 millions) were seeded in 10 cm dishes (or ˜2 millions in 6 cm dishes) and treated next day with prostratin (K-101, 0.2 μM and 1 μM) or 0.02 μM and […] of K101-C1347, -C134801, and -C134802 for 48 hours. Cells were then collected/lysed for Western blot analysis. Protein quantification, SDS-PAGE, and Western blot procedures were performed as described in Example 65, except that a different lysis buffer (1 ml of 10×TNE [20 mL 1M Tris pH7.5; 30 mL 5M NaCl; 2 mL 0.5M EDTA; 48 mL d2H2O], 1 ml of 10% NP40, 7.7 mL of dH2O, 100 μL of 10× Protease inhibitors, 100 μL of 10× Phosphatase inhibitors, and 10 μl DTT) was used. To assess the effect of diterpenoid compounds on CaMKii phosphorylation, a phospho-specific antibody P-CaMKii (T286) (Abcam, cat #32678) was used for detection. Phosphorylation of CaMKii at T286 is a marker for activation of CaMKii kinase in the Wnt/Ca^2+ signaling pathway when […] and thus a downstream marker for inhibition of K-Ras stemness (Wang et al., Cell. 2015, 163(5):1237-51).

[5] = tested on: KP-4 (Pancreatic) cell line; assay: Proliferation of KP-4; format: cell-based
Protocol: as §1, §2

[6] = tested on: HL-60 (Leukemia) cell line; assay: Proliferation of HL-60; format: cell-based
Protocol: as §1, §2

[7] = tested on: Panc2.13 (Pancreatic) cell line; assay: Proliferation of Panc2.13; format: cell-based; conditions: for IC50: read-out: IC50 in μM Panc2.13 (Pancreatic); for ratio of (IC50 of K01)/(IC50 of compound), Panc2.13: value in parenthesis
Protocol: as §1, §2

PANC1 cells = assay: Sphere formation assay (cancer stemness); format: cell-based; conditions: Homo sapiens, PANC-1, read-out: concentration exhibiting at least 50% inhibition on the sphere forming efficiency
Protocol: A group of diterpenoid compounds of the present disclosure were tested to assess their effects on blocking formation of spheres from cancer cell lines such as PANC1, a K-Ras mutant pancreatic cell line. Briefly, PANC1 cells were harvested, re-suspended as single cell suspensions, counted and seeded into Ultra Low Attachment Culture 96-well plate (Corning, Cat #3474) at 100 cells/well in 100 μl of complete media (with 10% FBS) containing 2% Matrigel (Corning, Cat #354234) and DMSO or compounds. Six replicates per condition were seeded. The seeded cells were placed in the 37° C. tissue culture incubator. 10 μl of low serum containing media (with 0.1% FBS) was added to each well every week. Spheres formed after 3-4 weeks were counted. Sphere forming efficiency was expressed as percentage of # of spheres/# of cells seeded.

[8] = target: T1, C1b domain of human PKD1 (PKCμ) (Homo sapiens, UniProt Q15139); assay: biochemical; format: binding
T1 construct: Genes encoding C1b domains of human PKCα, δ, ε, θ, and PKD1 (PKCμ) were synthesized; made in house; host or cells: E. coli BL21(DE3)
T1 sequence (Q15139 270-320 limits assumed): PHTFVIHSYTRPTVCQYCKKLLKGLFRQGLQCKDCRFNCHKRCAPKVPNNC
Procedure, shortened: (§3)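 GST-C1b (human, E. coli-expressed) + 3H-PDBu + compound; 37° C 10 min shaking, then ice 20 min. Filter capture, scintillation count. IC50 → Ki via Cheng-Prusoff, per-prep measured Kd.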

C1b domain of human PKCε = target: T2, C1b domain of human PKCε (Homo sapiens, UniProt Q02156); assay: Competitive 3H-PDBu binding to C1b domain of PKCε
T2 construct: Genes encoding C1b domains of human PKCα, δ, ε, θ, and PKD1 (PKCμ) were synthesized; made in house; host or cells: E. coli BL21(DE3)
Procedure, shortened: as §3

C1b domain of human PKCδ = target: T3, C1b domain of human PKCδ (Homo sapiens, UniProt Q05655); assay: Competitive 3H-PDBu binding to C1b domain of PKCδ; conditions: Ki PKCδ, 3H-PDBu competition
T3 construct: Genes encoding C1b domains of human PKCα, δ, ε, θ, and PKD1 (PKCμ) were synthesized; made in house; host or cells: E. coli BL21(DE3)
Procedure, shortened: as §3

C1b domain of human PKCα = target: T4, C1b domain of human PKCα (Homo sapiens, UniProt P17252); assay: biochemical; format: binding; conditions: 3H-PDBu competition
T4 construct: Genes encoding C1b domains of human PKCα, δ, ε, θ, and PKD1 (PKCμ) were synthesized; made in house; host or cells: E. coli BL21(DE3)
Procedure, shortened: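 Competitive binding against 3H-PDBu tracer used recombinant GST-C1b fusion protein expressed in E. coli. Incubation ran 10 min at 37°C with shaking, then 20 min on ice, followed by filtration and scintillation counting of trapped 3H-PDBu. Affinity was derived using each protein preparation's experimentally determined Kd for 3H-PDBu.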

C1b domain of human PKCθ = target: T5, C1b domain of human PKCθ (Homo sapiens, UniProt Q04759); assay: Competitive 3H-PDBu binding to C1b domain of PKCθ
T5 construct: Genes encoding C1b domains of human PKCα, δ, ε, θ, and PKD1 (PKCμ) were synthesized; made in house; host or cells: E. coli BL21(DE3)
T5 sequence (Q04759 231-281 limits assumed): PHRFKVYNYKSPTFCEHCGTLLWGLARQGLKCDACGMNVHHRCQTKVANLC
Procedure, shortened: as §3

[9] = tested on: phosphorylation of PKCμ, PKCδ and Erk1/2 in A549 lung cancer cells; format: cell-based; conditions: 0.3 μM, 30 minutes, Western blot (FIG. 1)
Protocol: Cells were then treated with different drugs at indicated concentrations for 30 minutes. […] Imagequant LAS4000 (GE) was used to scan membranes if secondary antibodies anti-mouse IgG HRP conjugate or anti-rabbit IgG HRP conjugate (dilutions from 1:2000-1:10000) were used. For ProteinSimple Wes system, manufacture's procedure was followed (ProteinSimple 12-230 kDa Wes Separation Module) for sample preparation, loading, running, and data analysis.
Phosphorylation of these sites has been linked to acute activation or catalytic activity of the PKC isoforms and Erk1/2. High level of phosphorylation indicates strong activation.

[10] = Homo sapiens, MINO, read-out: IC50 in μM Mino (Lymphoma)
[11] = Homo sapiens, KP-4, read-out: IC50 in μM KP-4 (Pancreatic)
[12] = Homo sapiens, HL-60, read-out: IC50 in μM HL-60 (Leukemia)

T3 sequence (Q05655 230-280 limits assumed): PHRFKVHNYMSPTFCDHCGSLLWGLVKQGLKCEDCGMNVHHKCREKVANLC
T2 sequence (Q02156 242-292 limits assumed): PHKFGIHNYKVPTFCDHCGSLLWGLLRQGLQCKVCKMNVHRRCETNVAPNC

CC(=O)O[C@@]12C[C@@H](C)[C@@]3(O)[C@@H](C=C(CO)C[C@]4(O)C(=O)C(C)=C[C@@H]34)[C@@H]1C2(C)C [Compound K101, prostratin, reference compound]
IC50 ([1]; Homo sapiens, MINO; read-out: IC50 in μM Mino (Lymphoma)): 0.06 to 0.1 µM | IC50 [2]: 0.06 to 0.1 µM | IC50 ([3]; A549, 96 hours incubation, CellTiter Glo): 0.03 to 0.06 µM | phosphorylation of CaMKii at T286 [4]: induced phosphorylation of CaMKii at T286 | IC50 ([5]; Homo sapiens, KP-4; read-out: IC50 in μM KP-4 (Pancreatic)): 0.2 to 0.6 µM | IC50 ([6]; Homo sapiens, HL-60; read-out: IC50 in μM HL-60 (Leukemia)): 0.2 to 0.6 µM | IC50 [7]: 0.6 to 1 µM | IC50 (PANC1 cells; PANC1 single cell suspension, spheres counted after 3-4 weeks): ≤ 500 nM

CC1=C[C@H]2[C@@]3(O)[C@H](C)C[C@]4(OC(=O)C(C)(C)C)[C@H]([C@@H]3C=C(CO)C[C@]2(O)C1=O)C4(C)C [Compound K101-C1308]
IC50 [1, 10]: 0.01 to 0.03 µM | ratio of (IC50 of K01)/(IC50 of compound), Mino ([1]; Mino; value in parenthesis): 6.82 | ratio of (IC50 of K01)/(IC50 of compound), Namalwa [2]: 1.38 | IC50 [2]: 0.03 to 0.06 µM | IC50 ([3]; A549, 96 h): 0.06 to 0.1 µM | IC50 [5, 11]: 0.1 to 0.2 µM | ratio of (IC50 of K01)/(IC50 of compound), HL-60 ([6]; HL-60; value in parenthesis): 5.29 | IC50 [6, 12]: 0.06 to 0.1 µM | ratio of (IC50 of K01)/(IC50 of compound), Panc2.13 [7]: 6.29 | IC50 [7]: 0.1 to 0.2 µM | Ki [8]: 5 to 10 nM | Ki (C1b domain of human PKCε): 1 to 30 nM | Ki (C1b domain of human PKCδ): 1 to 30 nM | Ki (C1b domain of human PKCα; Ki PKCα): 800 to 1000 nM | Ki (C1b domain of human PKCθ): 30 to 60 nM | IC50 (PANC1 cells): ≤ 150 nM

CC1=C[C@H]2[C@@]3(O)[C@H](C)C[C@]4(OC(=O)[C@@H](N)CCCc5ccccc5)[C@H]([C@@H]3C=C(CO)C[C@]2(O)C1=O)C4(C)C [Compound K101-C1319]
IC50 [1, 10]: 0.01 to 0.03 µM | ratio of (IC50 of K01)/(IC50 of compound), Mino ([1]; Mino; value in parenthesis): 6 | ratio of (IC50 of K01)/(IC50 of compound), Namalwa [2]: 1.53 | IC50 [2]: 0.03 to 0.06 µM | IC50 ([3]; A549, 96 h): 0.06 to 0.1 µM | IC50 [5, 11]: 0.1 to 0.2 µM | ratio of (IC50 of K01)/(IC50 of compound), HL-60 ([6]; HL-60; value in parenthesis): 1.79 | IC50 [6, 12]: 0.03 to 0.06 µM | ratio of (IC50 of K01)/(IC50 of compound), Panc2.13 [7]: 3.65 | IC50 [7]: 0.2 to 0.6 µM | Ki [8]: < 5 nM | Ki (C1b domain of human PKCε): 30 to 60 nM | Ki (C1b domain of human PKCδ): < 5 nM | phosphorylation of PKC (PKD/PKCμ), PKCδ and Erk1/2 [9]: induced high levels of phosphorylation | Ki PKCα (C1b domain of human PKCα): E (E=>60 nM and ≤10 nM) | Ki (C1b domain of human PKCθ): 5 to 10 nM | IC50 (PANC1 cells): ≤ 1500 nM
